How the values were obtained:
Assay type in all cases: cell-based, human
RPE cells (ARPE-19) [1] = assay: Annexin and propidium iodide double-staining FACS assay of RPE cells (apoptosis)
Protocol: (§1) Double-staining (annexin and propidium iodide (PI)) assay of RPE cells. RPE cells (ARPE-19, available from ATCC) were treated for one hour with the TAK1 inhibitor {5Z-7-oxozeaenol (1 μM)}, following 200 μM H2O2 for one hour or left untreated. The cells were then washed with fresh medium and after 24 hours were trypsinized, stained, and analyzed by FACS. The percentage of cells in each cell-cycle phase (G1/G0, S, and G2/M) was determined by its DNA content (FL2A).
The role of TAK1 in the inflammatory response is characterized (12, 13), but little is known about its participation in the response of RPE cells to stress. RPE cells were treated with the TAK1 inhibitor 5Z-7-oxozeaenol (1 μM) for 1 hour before further treatment with H2O2 (200 μM). […] In contrast, in cells treated with the TAK1 inhibitor prior to their treatment with H2O2 the number apoptotic cells was 24% (FIG. 1A). The number of cells in the late apoptosis section of each FACS chart (annexin and Pi, upper right panel) was similar with or without TAK1 inhibitor.

RPE cells [2] = assay: Conditioned media (SASP) applied on fresh RPE cells, morphology
Protocol: FIG. 5 presents photographs showing that TAK1 inhibition contributes to the SASP of the RPE cells, causing hypertrophy and dysfunction. RPE cells were grown with the TAK1 inhibitor and/or H2O2 ([…]) or without treatment. After 2 weeks, conditioned media from the differently treated cells were centrifuge and the supernatants was employed on new freshly cells. Representative photographs of fresh RPE cells treated for 72 hours with the indicated conditioned media are shown. Scale bar=50 μm.
The most significant effect of senescence, is the acquisition of a senescence-associated secretory phenotype (SASP). SASP can convert senescent cells to proinflammatory cells that promote the secretion of chemokines and cytokines that can affect the microenvironment, including in the human retina (16, 17). To examine the role of TAK1 in this process, RPE cells were treated with TAK1 inhibitor or with H2O2, alone or in combination. After 2 weeks, the media was collected from the three separate treatments, centrifuged and the supernatants (conditioned media) were applied on fresh RPE cells for 72 hours.

RPE cells (ARPE-19) [3] = assay: FACS cell-cycle phase analysis by DNA content (FL2A)
Protocol: as §1
To examine the effect of TAK1 inhibition on the RPE cell cycle, RPE cells were treated with TAK1 inhibitor, with or without H2O2. The RPE cells are quiescent and mostly located at the G0/G1 stage (FIGS. 1B and 1C), however, following TAK1 inhibition the percentage of cells at the G0/G1 stage increased to 89% of the total number. […] This phenomenon was reduced upon TAK1 inhibition prior to the oxidative stress (FIGS. 1B and C). The Cell cycle arrest at G0/G1 upon TAK1-inhibition was further supported by the reduction in proliferation of RPE cells observed in the presence of the TAK1 inhibitor (FIG. 1D).

ARPE-19 cells = assay: XTT cell viability / proliferation assay
Protocol: Cell viability assays ARPE-19 cells were seeded in 96-well plates (5000 cells/well) in full medium and were pretreated with the TAK1 inhibitor 5Z-7-oxozeaenol (1 μM) or left untreated for 1 hour. Their viability was then assayed by the XTT assay (cell proliferation kit cat #20-300-1000; Beit Haemek, Israel).

RPE cells [4] = assay: Anisomycin toxicity to RPE cells (cellular morphology 72 hours post-treatment); settings: low levels, 5 minute treatment
Protocol: To determine possible toxicity of anisomycin to RPE cells, RPE cells were treated with anisomycin at different concentration for 5 minute periods. Following treatment, the medium was replaced and fresh medium was added. 72 hours post-treatment, the cells were photographed. […] Their viability was then assayed by the XTT assay.

RPE cells [5] = assay: SA-β-gal staining (senescence marker)
p53, phospho-p38 = assay: Western blot of p53 and phospho-p38 in RPE cells under oxidative stress
Protocol: Western blot analysis was performed by standard protocols (11), p53, p38, phospho-p38, GADPH, and TAK1; antibodies were obtained from Enco, Israel.
The p53 protein is known to play a critical role in cell-cycle regulation, DNA repair, and programmed cell death (14, 15). In view of this knowledge, and given the above-described observation that TAK1 inhibition reduced apoptosis, the expression of p53 in RPE cells was examined.

RPE cells [6] = assay: RPE cell size quantification (hypertrophy); settings: oxidative stress with TAK-1 inhibition; N=40 cells
Protocol: N=40 cells for each treatment. One of the hallmarks of RPE senescence is cellular hypertrophy. RPE cell size is approximately […]; but upon oxidative stress or genetic mutation RPE cells can undergo enlargement.

[7] = medium from cells treated 2 weeks with the single agent

Compound: OO [H2O2]
- number of apoptotic cells as a percentage of the total number (RPE cells (ARPE-19) [1]; H2O2 alone (200 μM), untreated cells 1.25%): 31%
- phenotype of fresh RPE cells after 72 hours with conditioned medium (RPE cells [2]; [7]): hypertrophic phenotype similar to that of senescent cells
- G2/M arrest (RPE cells (ARPE-19) [3]; H2O2 treatment alone): high levels of G2/M arrest

Compound: COc1ccc(C[C@H]2NC[C@H](O)[C@H]2OC(C)=O)cc1 [anisomycin, (2R,3S,4S)-4-hydroxy-2-(4-methoxybenzyl)-pyrrolidin-3-yl acetate]
- rate of cell proliferation (ARPE-19 cells; oxidative stress and anisomycin): did not display reduction
- toxicity to RPE cells (RPE cells [4]): not toxic
- number of SA-β-Gal positive cells (RPE cells [5]; H2O2 1 hour, 10 days growth, anisomycin 10 ng/ml 5 min, five more days, versus untreated cells exposed to oxidative stress): reduces the number of SA-β-Gal positive cells

Compound: CC1=C(/C=C/C(C)=C/C=C/C(C)=C/c2cc(/C=C/C=C(C)/C=C/C3=C(C)CCCC3(C)C)cc[n+]2CCO)C(C)(C)CCC1 [A2E]
- senescent phenotype (RPE cells [5]; A2E 5 μM added to cultured RPE cells): increases the senescent phenotype

Compound: COc1cc(O)c2c(c1)/C=C/C[C@H](O)[C@H](O)C(=O)/C=C\C[C@H](C)OC2=O [5Z-7-oxozeaenol]
- proliferation rate (optical density) (ARPE-19 cells; 5Z-7-oxozeaenol 1 μM pretreatment 1 hour, versus untreated cells peaking on day 4): slower proliferation rate
- p53 expression levels over a longer period (p53, phospho-p38; TAK1 inhibition, days): reduced p53 expression levels slightly more than the untreated cells
- p38 phosphorylation (p53, phospho-p38; TAK1 inhibitor 1 μM pretreatment, oxidative stress): inhibition of p38 phosphorylation
- time of p53 expression peak (p53, phospho-p38; pretreated with TAK1 inhibitor 1 μM, oxidative stress, control peak after 60 min): 10 min
- number of apoptotic cells as a percentage of the total number (RPE cells (ARPE-19) [1]; TAK1 inhibitor 1 μM 1 hour prior to H2O2 200 μM, FACS after 24 hours): 24%
- phenotype of fresh RPE cells after 72 hours with conditioned medium (RPE cells [2]; [7]): hypertrophic phenotype similar to that of senescent cells
- phenotype of fresh RPE cells after 72 hours with conditioned medium (RPE cells [2]; medium from cells treated with both TAK1 inhibitor and H2O2): aberrant morphology similar to that of atrophic RPE cells
- cell size (RPE cells [6]): increases cell size
- G2/M arrest under oxidative stress (RPE cells (ARPE-19) [3]; TAK1 inhibition prior to H2O2 treatment): reduced
- percentage of cells at the G0/G1 stage (RPE cells (ARPE-19) [3]; TAK1 inhibitor 1 μM, without H2O2): 89%
- number of cells expressing SA-β-gal (RPE cells [5]; TAK1 inhibitor alone, relative to untreated cells): dramatically increased
- SA-β-gal expression (RPE cells [5]; TAK1 inhibitor pretreatment then oxidative stress (200 μM H2O2 1 hour), days 13 and 16): strongly increased

From patent publication US10682328B2, “Compositions and methods for treatment of retinal degenerative diseases” (MOR RESEARCH APPLICATIONS LTD., priority 2014, dated 2020)
